According to PubChem BioAssay (NCI):
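In this assay, cells in 96-well plates receive the compound at five concentrations for 48 hours. Endpoints are linearly interpolated between the surrounding concentrations. The concentration for 50% growth inhibition is given as GI50. Definition used: TGI = concentration required for complete inhibition of growth.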

Tests used:
Experiment in all cases: growth of human tumour cells (NCI), 48 h
MDA-MB-435 = tested on: MDA-MB-435
UACC-257 melanoma = tested on: UACC-257 melanoma
OVCAR-3 ovarian = tested on: OVCAR-3 ovarian
SF-539 CNS = tested on: SF-539 CNS
NCI-H522 lung = tested on: NCI-H522 lung
NCI-H460 lung = tested on: NCI-H460 lung
SK-MEL-5 melanoma = tested on: SK-MEL-5 melanoma
UO-31 renal = tested on: UO-31 renal
RPMI-8226 leukemia = tested on: RPMI-8226 leukemia
LOX IMVI melanoma = tested on: LOX IMVI melanoma
SN12C renal = tested on: SN12C renal
CCRF-CEM leukemia = tested on: CCRF-CEM leukemia
OVCAR-4 ovarian = tested on: OVCAR-4 ovarian
SW-620 colon = tested on: SW-620 colon
KM12 colon = tested on: KM12 colon
NCI-H226 lung = tested on: NCI-H226 lung
MDA-MB-231 breast = tested on: MDA-MB-231 breast
OVCAR-8 ovarian = tested on: OVCAR-8 ovarian
SK-MEL-2 melanoma = tested on: SK-MEL-2 melanoma
HL-60(TB) leukemia = tested on: HL-60(TB) leukemia
CAKI-1 renal = tested on: CAKI-1 renal
UACC-62 melanoma = tested on: UACC-62 melanoma
MCF7 breast = tested on: MCF7 breast
HOP-92 NSCLC = tested on: HOP-92 NSCLC
U251 CNS = tested on: U251 CNS

## COc1ccc(CN2C(=O)C(Cl)=C(Nc3cccc(O)c3)C2=O)cc1
MDA-MB-435
  GI50: 0.269 µM
  TGI: 1.7 µM
UACC-257 melanoma
  GI50: 5.64 µM
  TGI: 19.2 µM
OVCAR-3 ovarian
  GI50: 1.73 µM
  TGI: 23.5 µM
SF-539 CNS
  GI50: 4.24 µM
  TGI: 15.9 µM
NCI-H522 lung
  GI50: 2.31 µM
  TGI: 17.6 µM
NCI-H460 lung
  GI50: 14.6 µM
  TGI: 31.6 µM
SK-MEL-5 melanoma
  GI50: 3.78 µM
  TGI: 17.7 µM
UO-31 renal
  GI50: 6.91 µM
  TGI: 95.1 µM
RPMI-8226 leukemia
  GI50: 0.807 µM
  TGI: 11.7 µM
LOX IMVI melanoma
  GI50: 5.7 µM
  TGI: 23 µM
SN12C renal
  GI50: 4.03 µM
  TGI: 20.1 µM
CCRF-CEM leukemia
  GI50: 0.748 µM
  TGI: 20.9 µM
OVCAR-4 ovarian
  GI50: 45.1 µM
  TGI: > 100 µM
SW-620 colon
  GI50: 4.69 µM
  TGI: > 100 µM
KM12 colon
  GI50: 0.801 µM
  TGI: 21.6 µM
NCI-H226 lung
  GI50: 6.44 µM
  TGI: 50.5 µM
MDA-MB-231 breast
  GI50: 6.43 µM
  TGI: > 100 µM
OVCAR-8 ovarian
  GI50: 2.99 µM
  TGI: 15 µM
SK-MEL-2 melanoma
  GI50: 4.16 µM
  TGI: 24.5 µM
HL-60(TB) leukemia
  GI50: 1.29 µM
  TGI: 7.49 µM
CAKI-1 renal
  GI50: 1.68 µM
  TGI: 21.3 µM
UACC-62 melanoma
  GI50: 2.83 µM
  TGI: 21.1 µM
MCF7 breast
  GI50: 3.64 µM
  TGI: 15.6 µM
HOP-92 NSCLC
  GI50: 12.1 µM
  TGI: 59.6 µM
U251 CNS
  GI50: 5.05 µM
